The target in experiment [1] is T1, cyclooxygenase (Mus musculus, UniProt P22437).
T1 construct: A cell suspension containing peritoneal cells of male mice 8-10 weeks old was obtained; endogenous in cells; host or cells: mouse peritoneal macrophages (male mice 8-10 weeks old), zymosan-stimulated
T1 sequence (P22437 27-602): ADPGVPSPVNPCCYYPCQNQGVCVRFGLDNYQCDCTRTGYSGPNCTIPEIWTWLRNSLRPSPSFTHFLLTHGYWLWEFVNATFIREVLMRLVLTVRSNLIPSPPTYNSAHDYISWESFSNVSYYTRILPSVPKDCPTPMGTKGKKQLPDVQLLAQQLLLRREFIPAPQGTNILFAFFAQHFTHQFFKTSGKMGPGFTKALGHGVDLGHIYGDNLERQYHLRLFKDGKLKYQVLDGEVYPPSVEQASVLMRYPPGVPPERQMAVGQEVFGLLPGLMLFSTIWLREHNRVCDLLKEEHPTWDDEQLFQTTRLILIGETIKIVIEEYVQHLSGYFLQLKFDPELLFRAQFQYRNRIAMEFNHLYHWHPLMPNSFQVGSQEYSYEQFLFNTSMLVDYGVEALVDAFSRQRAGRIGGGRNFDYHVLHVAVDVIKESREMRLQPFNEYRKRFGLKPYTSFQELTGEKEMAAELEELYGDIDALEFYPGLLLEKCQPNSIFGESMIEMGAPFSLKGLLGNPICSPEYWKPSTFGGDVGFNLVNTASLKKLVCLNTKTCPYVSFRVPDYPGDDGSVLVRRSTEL
The experiment in a line: Cyclooxygenase inhibition: release of 6-keto-PGF1 α from zymosan-stimulated mouse peritoneal macrophage cells. The class given is cell-based. The settings on record: 10^-5 mol/l, read-out: In vitro % inhibition effect on the release of 6-keto-PGF1 α. In short, it runs like this: (§1)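 Adherent peritoneal macrophages from 8–10-week male mice were preincubated 15 min with compound at 10^-5 M (1% dimethylformamide vehicle) in HBSS/10 mM Hepes, then stimulated with zymosan […] for 2 h. LTC4 and 6-keto-PGF1 α in supernatants were quantified by EIA, giving % inhibition versus zymosan controls.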

The target of experiment [2] is T2, 5-lipoxygenase (Mus musculus, UniProt P48999).
T2 construct: A cell suspension containing peritoneal cells of male mice 8-10 weeks old was obtained; endogenous in cells; host or cells: mouse peritoneal macrophages (male mice 8-10 weeks old), zymosan-stimulated
T2 sequence (P48999 1-674): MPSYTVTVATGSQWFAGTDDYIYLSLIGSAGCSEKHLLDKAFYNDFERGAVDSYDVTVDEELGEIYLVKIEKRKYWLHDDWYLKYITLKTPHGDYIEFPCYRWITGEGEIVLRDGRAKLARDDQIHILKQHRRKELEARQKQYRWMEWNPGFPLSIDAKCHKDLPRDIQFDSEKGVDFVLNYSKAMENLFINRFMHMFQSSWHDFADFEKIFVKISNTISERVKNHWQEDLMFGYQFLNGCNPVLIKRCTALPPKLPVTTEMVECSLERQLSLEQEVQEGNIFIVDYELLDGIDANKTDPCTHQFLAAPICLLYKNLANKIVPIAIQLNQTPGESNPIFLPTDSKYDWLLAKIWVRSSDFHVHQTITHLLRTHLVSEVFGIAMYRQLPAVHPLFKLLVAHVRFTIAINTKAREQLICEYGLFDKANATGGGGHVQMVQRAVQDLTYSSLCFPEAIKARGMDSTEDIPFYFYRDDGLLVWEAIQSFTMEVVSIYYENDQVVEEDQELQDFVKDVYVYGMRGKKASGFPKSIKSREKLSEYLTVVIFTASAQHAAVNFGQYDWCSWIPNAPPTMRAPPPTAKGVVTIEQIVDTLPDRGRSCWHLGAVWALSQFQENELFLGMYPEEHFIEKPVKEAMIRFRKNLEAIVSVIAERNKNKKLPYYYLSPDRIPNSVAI
The experiment can be described thus: 5-lipoxygenase inhibition: release of LTC4 from zymosan-stimulated mouse peritoneal macrophage cells. The class given is cell-based. The settings on record: 10^-5 mol/l, read-out: In vitro % inhibition effect on the release of LTC4. The method, boiled down: as §1

Drawing on patent publication US5324725A, “7-fused 2-(piperazinoalkyl) indole derivatives, intermediates and compositions thereof” (Kali-Chemie Pharma GmbH, priority 1991, dated 1994), this text covers inhibition for three compounds.

Structures are written as SMILES.

In the case of `CCCCC1CCc2cccc3c(CCN4CCN(c5cc(C)ccn5)CC4)c(C)n1c23` (stereo not drawn) [Example 73, 4-n-butyl-5,6-dihydro-2-methyl-1-{2-[4-(4-methylpyridin-2-yl)piperazin-1-yl]ethyl}-4H-pyrrolo[3,2,1-ij]quinoline], the figures for the inhibition at 10 µM in experiment [1] and in experiment [2] were 29% and 90%, respectively.

As for `Cc1ccnc(N2CCN(CCc3c(C)n4c5c(cccc35)CCC4C3CCCCC3)CC2)c1` (stereo not drawn) [Example 87], the results for the inhibition at 10 µM in experiment [1] and in experiment [2] were 20% and 23%, respectively.

`COc1ccc(-c2c(CCN3CCN(c4cc(C)ccn4)CC3)c3cccc4c3n2CCC4)cc1` [Example 7, 2-(4-methoxy-phenyl)-1-{2-[4-(4-methylpyridin-2-yl)piperazin-1-yl]ethyl}-5,6-dihydro-4H-pyrrolo[3,2,1-ij]quinoline]: the results for the inhibition at 10 µM in experiment [1] and in experiment [2] were 49% and 56%, respectively.
